Patent US12169196B2, “Human iPSC-based drug testing platform for muscular dystrophy” (The Johns Hopkins University, priority 2019, dated 2024)
“Also recorded” adds a separate entry of the source.

What was measured:
MEF2C = MEF2C protein expression by Western blot and immunocytochemistry in D2 myoblasts; format: cell-based, human
From the text: FIG. 2C: Representative image of ginsenoside Rd-treated myoblasts labeled by MyHC. FIG. 2E Cell average length dose-response curve of ginsenoside Rd (FIGS. 2E-2F) Western blot quantification of MEF2C protein level post Saponin Q. and ginsenoside Rd treatment alongside healthy hiPSC derived myoblasts control and DMSO negative controls, *P 5 0.05, n=3. FIG. 2G: Quantification of MEF2C expressing nuclei of saponin Q. and ginsenoside Rd-treated D2 myoblasts, n=3, *P 5 0.05. (Data=Mean±SEM, one-way ANOVA with Dunnett's multiple comparison test with DMSO negative control).
Whole-cell extracts were prepared by lysing cells on plate with RIPA buffer (CST) supplemented by proteinase inhibitor and phosphatase inhibitor cocktail (CST). Western blotting was performed according to the standard protocol using precast NuPAGE (4-12%) Bis-Tris gel (Invitrogen). Protein transfer was performed with the Bio-Rad turbo or wet/tank blotting system. Nitrocellulose membranes were incubated with primary antibodies overnight at 4° C. Membranes were then incubated with a secondary IRDye 800 conjugated anti-rabbit IgG, or Alexa Fluor 680 anti-mouse IgG and proteins were visualized and quantified using the LI-COR Odyssey Infrared Imaging System (LI-COR). Primary antibodies applied in this study were all purchased from Cell Signaling Technology except for the MEF2C antibody, which was from Sigma.

ERK1/2 = experiment: Western blot of phosphorylated ERK 1/2 in D2 myoblasts; format: cell-based, human; conditions: ginsenoside 25 μM or FLT3 recombinant protein 100 ng/ml, 30 min
Method: FIG. 3C, 3E: Quantification of western blot of phosphorylated ERK 1/2 (p-ERK 1/2) in D2 myoblasts treated with ginsenoside (25 μM), FLT3 recombinant protein (100 ng/ml) or DMSO for 30 min, n=4, *P≤0.05. […] (Data=Mean±SEM, FIGS. 3D, 3E: one-way ANOVA with Dunnett's multiple comparison test with DMSO negative control, FIG. 3G: one-way ANOVA with Tukey's multiple comparison test).
Whole-cell extracts were prepared by lysing cells on plate with RIPA buffer (CST) supplemented by proteinase inhibitor and phosphatase inhibitor cocktail (CST). […] Protein transfer was performed with the Bio-Rad turbo or wet/tank blotting system. Nitrocellulose membranes were incubated with primary antibodies overnight at 4° C. Membranes were then incubated with a secondary IRDye 800 conjugated anti-rabbit IgG, or Alexa Fluor 680 anti-mouse IgG and proteins were visualized and quantified using the LI-COR Odyssey Infrared Imaging System (LI-COR). Primary antibodies applied in this study were all purchased from Cell Signaling Technology except for the MEF2C antibody, which was from Sigma.

mdx^5cv mice [1] = experiment: Tibialis anterior muscle strength and rate of fatigue; format: in vivo, mouse
From the text: (§1) All animal experiments were approved by the Institutional Animal Care and Use Committee (IACUC) of The Johns Hopkins University, School of Medicine (Baltimore, Maryland). Mdx^5cv (B6Ros.Cg-Dmdmdx-5Cv/J) were obtained from The Jackson Laboratory. Mice were maintained in a 12-h light cycle (7 am-7 pm) with ad libitum access to food and water. […] Ginsenoside Rd was suspended in saline containing 10% 1,3-propanediol as vector.
Tibialis anterior muscle strength (maximal isometric force) and rate of fatigue were measured. Briefly, animals were anaesthetized with 3-5% isoflurane and placed in a supine position. The tibia was stabilized and the distal tendon of the tibialis anterior (TA) was surgically released and attached to the load cell (FT03, Grass Instruments, Warwick, RI). The load cell was adjusted via a micromanipulator to stretch the muscle to resting length (aka, optimal length). TA contraction was then triggered via subcutaneous stimulation of the fibular nerve, and the resulting force generated was sampled at 1 kHz and analyzed with acquisition software (PolyVIEW™ 16, Grass Instruments). After contractile function experiments, animals were euthanized and the TAs were harvested and weighed. […] To provide an index of fatigue, muscle tension was measured after 5 minutes of tetanic stimulation (200 ms train duration) repeated at 1 Hz and expressed as a percentage of initial tension.

mdx^5cv mice [2] = experiment: Quadriceps strength and susceptibility to injury; format: in vivo, mouse
From the text: as §1
In vivo muscle physiology. Quadriceps strength (maximal isometric torque) and susceptibility to injury were assessed in vivo as described (69, 70). Briefly, animals were anaesthetized with 3-5% isoflurane and placed in a supine position. The thigh was stabilized and the ankle was secured on to a lever arm. The knee was aligned with the axis of the stepper motor (model T8904, NMB Technologies, Chatsworth, CA, USA) and a torque sensor (QWFK-8M, Sensotec, Columbus, OH, USA), and the femoral nerve was stimulated via subcutaneous needle electrodes. A custom program based on commercial software (LabView version 8.5, National Instruments, Austin, TX, USA) was used to synchronize contractile activation and the onset of forced knee flexion. The position of the leg that results in optimal muscle length has been previously described and maximum isometric torque was measured in Newton-millimeters (Nmm). Injury was induced by 15 forced lengthenings (knee flexion) superimposed onto maximal quadriceps contractions through a 40-100 degree arc of motion (with full knee extension considered 0 deg) spaced 1 min apart. Loss in maximal isometric torque was measured 5 min after the last lengthening contraction. Since the knee position, lever arm, and moment arm of the muscle are unchanged between tests, maximal isometric torque reflects maximal isometric muscle force.

D2 myoblasts = test system: D2 myoblasts
Method: FIG. 7A: 9 primary hit compounds dose-response measured by MyHC antibody immunofluorescent intensity/nuclei. Concentrations of compounds were 0.001, 0.01, 0.1, 1, 2, 3, 4, 6 μM, except for saponin Q. which was 0.001, 0.01, 0.1, 0.2, 0.4, 0.6, 1 μM (n=3 for all). FIG. 7B: 9 primary hit compounds dose-response measured by α-actinin antibody immunofluorescent intensity/nuclei. Concentrations were same as in (FIG. 7A) (n=3 for all). FIGS. 7C-7E: Dose-response measured by cell average length of 3 analogs of saponin Q (n=3). […] (Data=Mean±SEM).
To further evaluate the efficacy of the 9 hit compounds and determine their optimal concentrations, an 8-point dose response assay was conducted, based on three parameters: anti-MyHC immunocytochemistry, anti-α-actinin immunocytochemistry and average cell length (FIGS. 7A-7B).

mdx^5cv mice [3] = experiment: Forelimb grip strength; format: in vivo, mouse; conditions: 8 weeks treatment
Method: as §1
Forelimb grip strength was measured as maximal tensile force using a computerized force transducer (Grip Strength Meter, Bioseb). Five measurements were performed for each animal and the maximum value was used for the analysis. Treadmill testing was performed using a motor-driven treadmill (Columbus Instruments). Prior to the test day, acclimatization was performed 5 times over a period of 2 weeks at 10 m/min. On the test day, mice ran at 5 m/min for 5 min (warm up) and the speed was increased 1 m/min every min up to 10 m/min. Mice were considered exhausted when they sat for more than 10 sec on a shock pad for the third time.

FLT3 signaling pathway = conditions: 5 μM, 24 h
From the text: Triplicate samples were used in microarray analysis. […] RNA was isolated using TRIzol (Invitrogen Life Technologies, Carlsbad, CA) followed by purification and DNase digestion using RNeasy mini kits (Qiagen, Venlo, Netherlands) according to manufacturer's instructions. […] Generation of sense strand cDNA from purified total RNA was followed by second strand synthesis, in vitro transcription cDNA synthesis, and single stranded cDNA synthesis and RNA hydrolysis. Fragmentation and labelling were performed according to manufacturer's instructions (GeneChip WT Plus reagent kit, Affymetrix, Santa). RNA extraction and qPCR were performed according to previous protocols, and primers are included in Table 1. The microarray data has been deposited in NCBI's Gene Expression Omnibus database and is accessible through the GEO series accession number GSE121023.

CC(C)=CCC[C@](C)(O[C@@H]1O[C@H](CO)[C@@H](O)[C@H](O)[C@H]1O)[C@H]1CC[C@]2(C)[C@@H]1[C@H](O)C[C@@H]1[C@@]3(C)CC[C@H](O[C@@H]4O[C@H](CO)[C@@H](O)[C@H](O)[C@H]4O[C@@H]4O[C@H](CO)[C@@H](O)[C@H](O)[C@H]4O)C(C)(C)[C@@H]3CC[C@]12C [ginsenoside Rd]
levels of MEF2C protein expression (Western blot) (MEF2C; vs DMSO): increased | MEF2C expressing cells (immunocytochemistry) (MEF2C; vs vector control): more MEF2C expressing cells | ERK1/2 activation (p-ERK 1/2) (ERK1/2): activated | susceptibility of TA muscles to fatigue (repeated maximal isometric contractions) (mdx^5cv mice [1]; compared to mdx TA muscles): less susceptible to fatigue; also recorded: increased their resistance to fatigue | maximal isometric force generated by tibialis anterior (TA) (mdx^5cv mice [1]; compared with sham control): no significant difference | loss in muscle force after contraction-induced injury, quadriceps (mdx^5cv mice [2]): 56±4.8% | maximal isometric force generated by quadriceps muscle (mdx^5cv mice [2]; compared with sham control): no significant difference | fusion of DMD hiPSC-derived myoblasts (D2 myoblasts): helped restore fusion | toxicity / cell death (D2 myoblasts): lower toxicity | dose-dependent effect on D2 myoblasts (cell average length) (D2 myoblasts; saponin analog test): dose-dependent effect | improvement of forelimb grip strength (mdx^5cv mice [3]): 19% | ingenuity pathway analysis z-score, FLT3 signaling pathway (FLT3 signaling pathway): > 2
